Assay results reported in patent US12691124B2, “Methods of controlling and improving brain health” (ICAHN SCHOOL OF MEDICINE AT MOUNT SINAI, priority 2019, dated 2026).

Legend:
[1] = tested on: mTOR; experiment: mTOR signaling in neurons (p70-S6k Thr389 phosphorylation); type: cell-based, mouse
Protocol: Immunoblotting. Mice were anesthetized with CO2 followed by decapitation, and the region of interest was rapidly dissected and frozen in liquid nitrogen and stored at −80° C. until further processing. Samples were sonicated at 4° C. in 1% SDS solution supplemented with protease, Trichostatin A (500 ng/ml) and PhosStop phosphatase inhibitor (Roche, Switzerland), and boiled for ten minutes. The protein concentration was determined using a BCA protein assay kit (ThermoFisherScientific, USA) according to the manufacturer's instructions. Protein samples were diluted in equal volume of 2×LDS sample buffer (Invitrogen) and supplemented with DTT to a final concentration of 200 mM (Sigma).
Additionally, there is significant agreement between genes sensitive to BET inhibition and mTOR inhibition.

[2] = tested on: primary cortical neurons; experiment: Seahorse mitochondrial stress test; type: cell-based, mouse
Protocol: Seahorse Mitochondrial Stress Test. In this assay, two fluorescent probes that detect the concentration of oxygen or protons are added to the culture media. Cellular metabolism causes rapid changes in the concentration of these molecules in the media which can be detected by changes in sensor fluorescence. The oxygen consumption rate (OCR) indicates mitochondrial respiration and the extracellular acidification rate (ECAR) is largely due to glycolysis. Certain pathways can be analyzed by the sequential addition of inhibitors to the media and measuring ensuing changes to the OCR and ECAR. First baseline readings are measured to give an understanding of basal metabolic rates. Then the last step of oxidative phosphorylation, the ATP synthase, is inhibited by oligomycin to determine how much oxygen is being used for ATP production. FCCP is next added to decouple the electron transport chain from the ATP synthase by increasing proton permeability of the membrane which drives oxidative phosphorylation to its maximum. Lastly, complex I is inhibited by rotenone to completely shut down mitochondrial respiration. Any oxygen that is consumed after rotenone is due to other cellular processes such as fatty acid metabolism. On the day of the assay, cultures were washed times with artificial CSF (aCSF) [120 mM NaCl, 3.5 mM KCl, 1.3 mM CaCl2, 1 mM MgCl2, 0.4 mM KH2PO4, 5 mM HEPES, 0.4% BSA, 10 mM Sodium-pyruvate, 15 mM Glucose], and incubated at 37° C. without CO2 for one hour prior to assay. Oxygen Consumption rate (OCR) was measured using the Seahorse XFe24 Analyzer (Agilent), under basal conditions and after the sequential addition of […] [carbonyl cyanide p-(trifluoromethoxy) phenylhydrazone], […]. Metrics were calculated according to the following equations. All values were calculated per well and normalized to cell number for each experiment. Each experiment was normalized to the average of all controls across all experiments (n=3) performed.
To understand if this was the case, the major energetic pathway in neurons, mitochondrial respiration, after BET inhibition was assessed using Seahorse technology. […] In addition to lower mitochondrial activity, proton leak which contributes to the production of reactive oxygen species (ROS) is lower after BET inhibition. Because increased ROS levels are detrimental to neuronal health, lower ROS production could also increase neuronal survival after BET inhibition.
Glycolysis also contributes to neuronal metabolism and several key glycolytic metabolites (Fructose 6-phosphate, Glucose-6-phosphate, Phosphoenolpyruvate) were decreased after IBET858. […] Additionally, the decreased maximal responses indicate that this metabolic state is relatively stable.

Compound: CC(=O)N1c2ccc(-c3ccc(CN4CCCCC4)cc3)cc2[C@H](Nc2ccccc2)CC1C (stereo in doubt) [IBET858]
- mTOR activity, phosphorylation of p70-S6k at Thr389 [1]: significant, time-dependent decrease
- mTOR protein levels [1]: does not affect
- mitochondrial coupling efficiency ([2]; 24 h or 1 week IBET858): increased coupling efficiency
- basal glycolysis (extracellular acidification rate) ([2]; chronic BET inhibition): slightly decreased
- basal mitochondrial respiration rates ([2]; chronic BET inhibition): significantly decreases
- decrease in ATP production ([2]; chronic BET inhibition): 50%
- maximum glycolytic rate ([2]; chronic BET inhibition): significantly attenuated
- maximum mitochondrial activity ([2]; chronic BET inhibition): also decreased
- proton leak ([2]; chronic BET inhibition): lower
